Assay results from patent US10077288B2, “Hydroxystatin derivatives for the treatment of arthrosis” (Merck Patent GmbH, priority 2012, dated 2018).

Key:
[1] = target: T1, cathepsin D isolated from the human liver (Homo sapiens, UniProt P07339); experiment: In-vitro fluorescence assay for identification of cathepsin D inhibitors; type: biochemical; conditions: human liver cathepsin D 1.4 nM, pH 5.5; read-out: CatD assay IC50-(M)
T1 construct: cathepsin D isolated from the human liver (Sigma-Aldrich); purchased Sigma-Aldrich; host or cells: human liver (tissue-derived, not recombinant)
Experimental: EXAMPLE 4: IN-VITRO FLUORESCENCE ASSAY FOR IDENTIFICATION OF CATHEPSIN D INHIBITORS
In order to identify modulators of cathepsin D activity, a continuous enzymatic test was carried out with a synthetic peptide which carries a fluorescent group (MCA=(7-methoxycoumarin-4-yl)acetyl) which is quenched by energy transfer from a Dpn (2,4 dinitrophenyl) group on the same molecule, in Greiner 384-well nb microtitre plates. Cleavage of the peptidic substrate by cathepsin D causes an increase in the fluorescence intensity. In order to determine the efficacy of substances, the time-dependent increase in the fluorescence intensity in the presence of the substance was compared with the time-dependent increase in fluorescence in the absence of substances. The reference substance used was pepstatin A (Sigma-Aldrich). The substrate used was MCA-GKPILFFRLK(Dnp)d-R—NH2 (Enzo Life Sciences, Lörrach). The enzyme employed was cathepsin D isolated from the human liver (Sigma-Aldrich) in a final concentration of 1.4 nM. The test was carried out in 100 mM sodium acetate buffer, 1.25% (v/v) of DMSO, 0.25% (w/v) of Chaps, pH 5.5. 2 μl of each substance solution with serially diluted substance concentration were added to in each case 4 μl of cathepsin D solution and incubated at room temperature for 10 min. The reaction was started by addition of 2 μl of substrate solution (final concentration 5 μM). After carrying out a starting-point fluorescence measurement (excitation wavelength 340 nm/emission wavelength 450 nm) using an Envision multilabel reader (Perkin Elmer), the reaction was incubated at room temperature for 60 min. The amount of peptide fragment cleaved off during the reaction time was subsequently measured by determination of the increase in the fluorescence intensity at 450 nm (excitation wavelength 340 nm).

recombinant human renin = target: T2, recombinant human renin (Homo sapiens, UniProt P00797); experiment: In-vitro fluorescence assay for identification of renin-inhibitory activity; type: biochemical; conditions: recombinant human renin 10 nM, FRET substrate 5 μM, pH 7.2; read-out: Renin selectivity IC50
T2 construct: purchased Proteos, Kalamazoo, Mich
T2 sequence (P00797 67-406): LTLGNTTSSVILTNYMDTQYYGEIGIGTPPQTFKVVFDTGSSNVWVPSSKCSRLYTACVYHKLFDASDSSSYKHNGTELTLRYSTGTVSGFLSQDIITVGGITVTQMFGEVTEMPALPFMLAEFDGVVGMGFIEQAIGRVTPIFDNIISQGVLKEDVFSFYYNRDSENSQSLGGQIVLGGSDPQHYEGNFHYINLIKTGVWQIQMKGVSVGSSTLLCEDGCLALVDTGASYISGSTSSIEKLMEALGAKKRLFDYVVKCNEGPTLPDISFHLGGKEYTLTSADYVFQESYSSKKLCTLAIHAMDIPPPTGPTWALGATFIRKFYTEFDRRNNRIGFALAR
Experimental: EXAMPLE 8: IN-VITRO FLUORESCENCE ASSAY FOR IDENTIFICATION OF RENIN-INHIBITORY ACTIVITY
In order to identify modulators of renin activity, a continuous enzymatic test was carried out with a synthetic peptide which carries a fluorescent group Edans (=(5-(aminoethyl)aminonaphthalenesulfonate) which is quenched by energy transfer from a Dabcyl (4′-dimethylaminoazobenzene-4-carboxylate) group on the same molecule, in Greiner 384-well microtitre plates. Cleavage of the peptidic substrate by renin causes an increase in the fluorescence intensity. In order to determine the efficacy of substances, the time-dependent increase in the fluorescence intensity in the presence of the substance was compared with the time-dependent increase in fluorescence in the absence of substances. The reference substance used was renin inhibitor 2 (Z-Arg-Arg-Pro-Phe-His-Sta-Ile-His N-Boc-Lys methyl ester Z) (Sigma-Aldrich). The substrate used was renin FRET substrate I (DABCYL-g-Abu-Ile-His-Pro-Phe-His-Leu-Val-Ile-His-Thr-EDANS) (Anaspec, Fremont Calif.). The enzyme employed was recombinant human renin (Pro-teos, Kalamazoo, Mich.) in a final concentration of 10 nM. The test was carried out in 50 mM Mops buffer, 1.5% (v/v) of DMSO, 0.1% (w/v) of Igepal®, pH 7.2, 0.5% (w/v) of BSA. 2 μl of each substance solution with serially diluted substance concentration were added to in each case 4 μl of renin solution and incubated at room temperature for 15 min. The reaction was started by addition of 4 μl of substrate solution (final concentration 5 μM). After carrying out a starting-point fluorescence measurement (excitation wavelength 340 nm/emission wavelength 495 nm) using an Envision multilabel reader (Perkin Elmer), the reaction was incubated at 37° C. for 60 min. The amount of peptide fragment cleaved off during the reaction time was subsequently measured by determination of the increase in the fluorescence intensity at 495 nm (excitation wavelength 340 nm).
Result: all compounds measured have an IC50 of the renin selectivity of >30 μM (see Table 2 in Example 1).

T1 sequence (P07339 65-161 limits assumed): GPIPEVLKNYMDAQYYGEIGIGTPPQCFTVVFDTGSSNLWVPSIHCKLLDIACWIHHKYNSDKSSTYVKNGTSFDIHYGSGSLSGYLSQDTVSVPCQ
T1 sequence (P07339 169-412 limits assumed): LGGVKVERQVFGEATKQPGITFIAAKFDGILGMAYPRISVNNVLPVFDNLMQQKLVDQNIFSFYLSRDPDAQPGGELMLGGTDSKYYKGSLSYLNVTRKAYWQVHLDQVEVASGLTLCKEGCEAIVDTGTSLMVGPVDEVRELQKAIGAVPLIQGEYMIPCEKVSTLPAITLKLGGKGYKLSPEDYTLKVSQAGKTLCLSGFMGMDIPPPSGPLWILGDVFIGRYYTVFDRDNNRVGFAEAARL

**Q.** Which results are given for `CC[C@H](C)[C@H](NC(=O)C[C@H](O)[C@H](Cc1ccccc1)NC(=O)[C@@H](NC(=O)CCc1ccccc1)C(C)C)C(=O)N[C@H](C(=O)OCc1ccccc1)C(C)C` [Compound 1, benzly (S)-2-((2S,3S)-2-{(3S,4S)-3-hydroxy-4-[(S)-3-methyl-2-(3-phenylpropionylamino)butyrylamino]-5-phenylpentanoylamino}-3-methylpentanoylamino)-3-methylbutyrate]?
**A.** IC50 [1]: 7.9e-08 M; IC50 (recombinant human renin): > 30000 nM

**Q.** `CC[C@H](C)[C@H](NC(=O)C[C@H](O)[C@H](Cc1ccccc1)NC(=O)[C@@H](NC(=O)C(C)(C)Oc1ccc2ccccc2c1)C(C)C)C(=O)N[C@H](C(=O)OCc1ccccc1)C(C)C` [Compound 3, benzly (S)-2-[(2S,3S)-2-((3S,4S)-3-hydroxy-4-{(S)-3-methyl-2-[2-methyl-2-(naphthalen-2-yloxy)propionylamino]butyrylamino}-5-phenylpentanoylamino)-3-methylpentanoylamino]-3-methylbutyrate] was tested. Which IC50 [1] did it give?
**A.** Its IC50 is 2.3e-07 M.

**Q.** And the IC50 (recombinant human renin)?
**A.** The IC50 was > 30000 nM.

**Q.** How did the IC50 [1] turn out when `CC[C@H](C)[C@H](NC(=O)C[C@H](O)[C@H](Cc1ccccc1)NC(=O)[C@@H](NC(=O)Cc1ccc(OC)cc1)C(C)C)C(=O)N[C@H](C(=O)O)C(C)C` [Compound 15, (S)-2-[(2S,3S)-2-((3S,4S)-3-hydroxy-4-{(S)-2-[2-(4-methoxyphenyl)-acetylamino]-3-methylbutyrylamino}-5-phenylpentanoylamino)-3-methylpentanoylamino]-3-methylbutyric acid] was run?
**A.** The IC50 was 3.9e-08 M.

**Q.** And the IC50 (recombinant human renin)?
**A.** The IC50 was > 30000 nM.

**Q.** Which IC50 [1] does the source give for `CC[C@H](C)[C@H](NC(=O)C[C@H](O)[C@H](Cc1ccccc1)NC(=O)[C@@H](NC(=O)Cc1ccccc1OC)C(C)C)C(=O)N[C@H](C(=O)O)C(C)C` [Compound 28, (S)-2-[(2S,3S)-2-((3S,4S)-3-hydroxy-4-{(S)-2-[2-(2-methoxyphenyl)-acetylamino]-3-methylbutyrylamino}-5-phenylpentanoylamino)-3-methylpentanoylamino]-3-methylbutyric acid] here?
**A.** The IC50 was 1.6e-07 M.

**Q.** What about the IC50 (recombinant human renin) of the same compound?
**A.** The IC50 was > 30000 nM.

**Q.** For `CC[C@H](C)[C@H](NC(=O)C[C@H](O)[C@H](Cc1ccccc1)NC(=O)[C@@H](NC(=O)[C@H](CC(C)C)NC(=O)CC(C)C)C(C)C)C(=O)NC1CCCC1` [Compound 46, N-((1S,2S)-1-cyclopentylcarbamoyl-2-methylbutyl)-(2S,5S)-3-hydroxy-4-{(S)-3-methyl-2-[(S)-4-methyl-2-(3-methylbutyrylamino)-pentanoylamino]butyrylamino}-5-phenylpentanamide], which IC50 [1] is on record?
**A.** Its IC50 is 1.8e-09 M.

**Q.** Which IC50 [1] does the source give for `CCC(CC)NC(=O)[C@@H](NC(=O)C[C@H](O)[C@H](Cc1ccccc1)NC(=O)[C@@H](NC(=O)[C@H](CC(C)C)NC(=O)CC(C)C)C(C)C)C(C)C` [Compound 47, N—[(S)-1-(1-ethylpropylcarbamoyl)-2-methylpropyl]-(3S,4S)-3-hydroxy-4-{(S)-3-methyl-2-[(S)-4-methyl-2-(3-methylbutyrylamino)-pentanoylamino]butyrylamino}-5-phenylpentanamide] here?
**A.** Its IC50 is 6.5e-10 M.

**Q.** Which IC50 [1] does the source give for `CCC[C@H](NC(=O)C[C@H](O)[C@H](Cc1ccccc1)NC(=O)[C@@H](NC(=O)[C@H](CC(C)C)NC(=O)CC(C)C)C(C)C)C(=O)NC(CC)CC` [Compound 48, N—[(S)-1-(1-ethylpropylcarbamoyl)butyl]-(3S,4S)-3-hydroxy-4-{(S)-3-methyl-2-[(S)-4-methyl-2-(3-methylbutyrylamino)pentanoylamino]-butyrylamino}-5-phenylpentanamide] here?
**A.** Its IC50 is 2.6e-10 M.

**Q.** How did the IC50 [1] turn out when `CC[C@H](C)[C@H](NC(=O)C[C@H](O)[C@H](Cc1ccccc1)NC(=O)[C@@H](NC(=O)[C@H](CC(C)C)NC(=O)CC(C)C)C(C)C)C(=O)NC(C)(C)CCO` [Compound 49, N-[(1S,2S)-1-(3-hydroxy-1,1-dimethylpropylcarbamoyl)-2-methylbutyl]-(3S,4S)-3-hydroxy-4-{(S)-3-methyl-2-[(S)-4-methyl-2-(3-methylbutyrylamino)pentanoylamino]butyrylamino}-5-phenylpentanamide] was run?
**A.** The IC50 was 2.1e-10 M.
